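Results reflect a 48-hour exposure of cells in 96-well plates to compound at five concentrations. Abbreviation: GI50, concentration required for 50% inhibition of growth. TGI: concentration producing complete growth inhibition.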 Bounds are passed on as bounds.

This is an account of results in PubChem BioAssay (NCI).

What all share (assay): NCI anticancer screen, dose series, 48 h
Assay [1] concerns UACC-62 melanoma.
Assay [2] concerns UACC-257 melanoma.
The subject of assay [3] is KM12 colon.
The subject of assay [4] is MALME-3M melanoma.
The test system of assay [5] is SN12C renal.
Assay [6] concerns RXF 393 renal.
Assay [7] relates to HL-60(TB) leukemia.
Assay [8] concerns SF-539 CNS.
Assay [9] relates to NCI-H226 lung.
In assay [10] the test system is A498 renal.

Consider `CN(C)CC1CC/C(=C\c2ccc(Cl)c(Cl)c2)C1=O` (configuration not stated), for which the TGI in assay [1] is 31.5 µM; in [2], greater than 60.9 µM; in assay [3], 35.7 µM; in [4], greater than 100 µM; in assay [5], greater than 55.8 µM; in assay [6], greater than 61.8 µM. In addition, the TGI in assay [7] is 4.68 µM; in assay [8] it was greater than 55.7 µM; in assay [9], greater than 100 µM; in assay [10] it was 73.6 µM.
As to `Cc1c2cnccc2c(C)c2c1c1ccccc1n2CCOC(=O)c1ccccc1`, the TGI in assay [1] is 34.8 µM; in assay [2], 42 µM; in assay [3] it was greater than 98 µM; in assay [4], 28.8 µM; in assay [5], 21 µM; in assay [6] it was 27.3 µM. Further, the TGI in assay [7] stood at 26 µM; in [8] it was 20.9 µM; in assay [9], 70 µM; in assay [10] it was 32.2 µM.
With `CC(=O)OCC1C(=O)OCC1C(=O)N1Cc2cc3ccccc3nc2C1` (configuration not stated), the TGI was 7.99 µM in [1]; 8.64 µM in assay [2]; 30.4 µM in assay [3]; 3.16 µM in assay [4]; 14.4 µM in assay [5]; 2.57 µM in [6]. For the same compound, the TGI was found to be 11.9 µM in assay [7], 17.8 µM in [8], 18.8 µM in assay [9] and 16.4 µM in [10].
Take `Cc1c(C(Cc2ccccc2N(C)C(=O)/C=C\C(=O)O)c2c[nH]c3ccccc23)c2ccccc2n1C` (configuration not stated): the TGI came out at 34.1 µM in assay [1]; 31.5 µM in assay [2]; 29.1 µM in assay [3]; 22.4 µM in assay [4]; 30 µM in assay [5]; 27.3 µM in assay [6]. The TGI is 23.9 µM in assay [7], 31.8 µM in assay [8], 43 µM in [9] and 35.6 µM in assay [10].
For `COc1ccc2c(c1)[C@@H](NC(C)=O)CCc1cc(OC)c(OC)c(OC)c1-2`, the TGI is greater than 26.8 µM in [1]; greater than 100 µM in assay [2]; 0.039 µM in [3]; greater than 100 µM in assay [4]; greater than 100 µM in [5]; greater than 8.58 µM in assay [6]. Also, the TGI was less than 0.0142 µM in assay [7], less than 0.0154 µM in assay [8], greater than 16.3 µM in assay [9] and greater than 100 µM in assay [10].
For the compound `COc1ccc(-c2nc3sc(-c4cc(OC)c(OC)c(OC)c4)nn3c2/C=C2/C(=O)Nc3ccc(F)cc32)cc1`, the GI50 in assay [1] is 13.3 µM; in assay [2], 3.35 µM; in assay [3], 4.04 µM; in assay [4], 9.15 µM; in assay [5] it was 14.2 µM; in assay [6], 3.96 µM. Also, the GI50 is 2.17 µM in assay [7], 56 µM in [8], 16.8 µM in assay [9] and 12.2 µM in [10]. The TGI stood at 33.4 µM in [1]; 11.3 µM in [2]; 15.7 µM in assay [3]; 29.9 µM in [4]; 40.1 µM in assay [5]; 18.7 µM in assay [6]. The TGI in assay [7] is 70.3 µM; in assay [8], greater than 100 µM; in assay [9], 36.7 µM; in [10], 30.6 µM.
`NC1=C(O)c2cccc3cccc(c23)C1=O`: the TGI in [1], in [2], in assay [3], in [4], in assay [5] and in [6] was greater than 100 µM throughout. Also, the TGI in assay [7], in assay [8], in assay [9] and in [10] was greater than 100 µM throughout.
With `O=C1C=C(Nc2ccccc2)c2ccccc2C1=O`, the GI50 in assay [1] is 1.65 µM; in assay [2], 1.79 µM; in [3], 2.94 µM; in [4], 1.64 µM; in assay [5], 1.62 µM; in [6], 2.53 µM. The GI50 in assay [7] is 2.82 µM; in assay [8], 1.81 µM; in assay [9], 1.93 µM; in [10], 1.96 µM. Moreover, the TGI turned out to be 3.12 µM in [1]; 3.25 µM in [2]; 9.17 µM in [3]; 3.07 µM in [4]; 3.11 µM in assay [5]; 8.77 µM in [6]. The TGI was found to be 7.83 µM in assay [7], 3.47 µM in assay [8], 4.21 µM in [9] and 5.26 µM in assay [10].
For the compound `CC(C)=CCc1cc2c(cc1O)C1=C(C(=O)C3=C(NCCS3(=O)=O)C1=O)C(C=C(C)C)O2` (configuration not stated), the GI50 in assay [1] is 3.39 µM; in assay [2], 3.48 µM; in assay [3], 7.12 µM; in [4], 1.68 µM; in assay [5], 2.78 µM; in assay [6] it was 7.66 µM. The GI50 in [7] is 4.43 µM; in [8], 4.22 µM; in assay [9], 14.4 µM; in assay [10] it was greater than 16.7 µM. Besides, the TGI in assay [1] is 8.79 µM; in assay [2] it was 9.66 µM; in [3] it was greater than 16.7 µM; in assay [4], 4.68 µM; in assay [5] it was 5.69 µM; in assay [6], greater than 16.7 µM. Also, the TGI in assay [7] was 13.5 µM; in assay [8] it was 12.9 µM; in [9] it was greater than 16.7 µM; in assay [10], greater than 16.7 µM.
Regarding `CC1CCCCCC(=O)c2c(O)cc(O)cc2CC(=O)O1` (configuration not stated), the TGI in assay [1], in assay [2], in assay [3], in assay [4], in assay [5] and in assay [6] was greater than 100 µM in each case. Also, the TGI in [7], in assay [8], in assay [9] and in assay [10] was greater than 100 µM in each case.
On to `COC(=O)[C@@H](C)C[C@H](Cc1ccccc1)NC(=O)c1nc([C@@H](C[C@H](C(C)C)N(C)C(=O)[C@@H](NC(=O)[C@H]2C[C@H](O)CCN2C)C(C)C)OC(C)=O)sc1C(C)C`, for which the GI50 in [1] is 0.00243 µM; in [2], 5.89 µM; in assay [3], 0.00473 µM; in assay [4], 0.00537 µM; in [5] it was 0.00671 µM; in [6] it was 0.025 µM. For the same compound, the GI50 was 0.00143 µM in [7], 0.0159 µM in assay [8], 0.0257 µM in assay [9] and 0.00752 µM in [10]. The TGI was greater than 11.1 µM in assay [1]; greater than 11.1 µM in assay [2]; greater than 3.95 µM in [3]; greater than 11.1 µM in assay [4]; 3.3 µM in assay [5]; greater than 11.1 µM in [6]. Besides, the TGI was 0.0074 µM in assay [7], 0.0505 µM in assay [8] and 0.0881 µM in assay [10].
Regarding `CN(C)CCC(N)(P(=O)([O-])[O-])P(=O)([O-])[O-].N.N.[Pt+2]`, the GI50 in assay [1], in [2], in assay [3], in assay [4], in assay [5] and in assay [6] was greater than 100 µM each time. The GI50 in assay [7], in assay [8], in assay [9] and in assay [10] was greater than 100 µM each time. Further, the TGI in assay [1], in assay [2], in assay [3], in assay [4], in [5] and in assay [6] was greater than 100 µM each time. In addition, the TGI in assay [7], in assay [8], in assay [9] and in [10] was greater than 100 µM in each case.
Regarding `O=S1OC(c2ccccc2)(c2ccccc2)C(c2ccccc2)(c2ccccc2)O1`, the TGI in assay [1], in assay [2], in assay [3], in assay [4], in assay [5] and in assay [6] was greater than 100 µM each time. Further, the TGI in [7], in [8], in assay [9] and in assay [10] was greater than 100 µM each time.
`COC(=O)c1c2c(c(C)[n+]([O-])c1C)C(=O)C(NCc1ccc(OC)cc1)=CC2=O`: the GI50 in [1] is 1.72 µM; in assay [2] it was 1.63 µM; in assay [3] it was 2.19 µM; in assay [4] it was 0.28 µM; in assay [5], 1.62 µM; in assay [6] it was 1.55 µM. The GI50 is 1.67 µM in assay [7], 1.68 µM in assay [8], 3.45 µM in [9] and 2.06 µM in assay [10]. Also, the TGI in assay [1] was determined as 3.62 µM; in [2] it was 3.42 µM; in assay [3], 8.68 µM; in [4], 1.1 µM; in assay [5], 3.65 µM; in assay [6], 3.7 µM. For the same compound, the TGI in assay [7] stood at 5.25 µM; in assay [8] it was 3.39 µM; in assay [9] it was 13.5 µM; in assay [10], 4.97 µM.
For the compound `N#CC(C(=O)CCCC(=O)Nc1ccccc1[N+](=O)[O-])c1c(Cl)cccc1Cl` (configuration not stated), the TGI in [1], in [2], in [3], in [4], in assay [5] and in assay [6] was greater than 100 µM each time. Moreover, the TGI in [7], in assay [8], in assay [9] and in [10] was greater than 100 µM throughout.
In the case of `Cn1cc(-c2ccc3nc(-c4ccc(CC(=O)Nc5cc(C(C)(C)C)no5)cc4)cnc3c2)cn1`, the GI50 was 0.0297 µM in assay [1]; 0.0784 µM in assay [2]; 0.00173 µM in assay [3]; 0.021 µM in assay [4]; 0.0268 µM in [5]; 0.0195 µM in [6]. In addition, the GI50 in [7] is 0.735 µM; in assay [8], 0.0274 µM; in assay [9], 0.0444 µM; in assay [10] it was 0.0439 µM. Besides, the TGI was greater than 3 µM in assay [1]; greater than 3 µM in assay [2]; greater than 3 µM in assay [3]; greater than 0.694 µM in assay [4]; greater than 3 µM in assay [5]; greater than 3 µM in assay [6]. Further, the TGI was greater than 3 µM in assay [7], greater than 3 µM in [8], greater than 3 µM in [9] and 0.185 µM in [10].
As for `CC1(C)N=C(N)N=C(N)N1c1ccc(OCCCNC(=O)Nc2ccc(S(=O)(=O)F)cc2)c(Cl)c1`, the GI50 in [1] is 0.268 µM; in assay [2] it was 5.11 µM; in [3], 0.504 µM; in assay [4] it was 2.02 µM; in assay [5], 0.111 µM; in assay [6], 12.9 µM. Further, the GI50 in assay [7] is 0.113 µM; in [8], 1.3 µM; in assay [9], 11.2 µM; in [10], 4.57 µM. In addition, the TGI in assay [1], in [2], in [3], in assay [4], in assay [5] and in assay [6] was greater than 100 µM each time. Further, the TGI is greater than 65.3 µM in assay [7], greater than 67.4 µM in [8], greater than 100 µM in [9] and 99.4 µM in assay [10].
On to `Nc1c(C(=O)Nc2cccc(Cl)c2)sc2nc3c(cc12)C(=O)CCC3`, for which the GI50 was 0.349 µM in [1]; greater than 100 µM in assay [2]; 0.298 µM in assay [3]; 0.498 µM in assay [4]; 0.836 µM in assay [5]; 0.479 µM in assay [6]. The GI50 in assay [8] was 0.586 µM; in assay [9] it was 11.1 µM; in assay [10], 0.134 µM. For the same compound, the TGI is greater than 100 µM in assay [1]; greater than 100 µM in assay [2]; greater than 100 µM in assay [3]; greater than 100 µM in assay [4]; greater than 100 µM in assay [5]; greater than 42.2 µM in assay [6]. The TGI in [7], in assay [8] and in assay [9] was greater than 100 µM each time.
